Tests used:
[1] = percent repression of food intake (appetite suppression) in laboratory rats trained to a six hour feeding period; assay type: in vivo, adult male Wistar rats
Excerpt: In this screen, adult male Wistar rats weighing between 250-400 g were housed individually and trained to consume their daily intake of food within a six hour period. Food was then withdrawn for the remaining eighteen hour period of each day. Drinking water was available at all times, and the animals were maintained on a twelve hour light/twelve hour dark cycle. This training regimen was maintained for a seven-day period. Powdered, rather than pelletized, food was used to minimize spillage and to facilitate measurement of food intake.
On each test day, a group of twelve rats was used, six receiving a single dose of test compound and six serving as a control group. Immediately after dosing, the rats were allowed access to food. Food intake was then monitored over the next six-hour period. The food hoppers were weighed at intervals of 30 minutes, and at 1, 2, 3, 4, 5, and 6 hours after administration of the test compound. The percent repression of food intake of laboratory rats under these conditions for the prior art octapeptide, CCK26-33, and for several compounds of the present invention appear in Table 2.

[2] = target: T1, CCK receptor (Mus musculus, UniProt P56481); test: displacement of tritiated pentagastrin binding to mouse cerebral cortical membranes (CCK receptor binding screening test); design: species or system male CFLP mice; settings: tritiated pentagastrin (2 nM) displacement, Cheng-Prusoff
T1 construct: the cerebral cortices from male CFLP mice weighing between 30-40 g were dissected on ice, weighed and homogenized; from tissue; host or cells: cerebral cortex membranes of male CFLP mice
T1 sequence (P56481 1-453): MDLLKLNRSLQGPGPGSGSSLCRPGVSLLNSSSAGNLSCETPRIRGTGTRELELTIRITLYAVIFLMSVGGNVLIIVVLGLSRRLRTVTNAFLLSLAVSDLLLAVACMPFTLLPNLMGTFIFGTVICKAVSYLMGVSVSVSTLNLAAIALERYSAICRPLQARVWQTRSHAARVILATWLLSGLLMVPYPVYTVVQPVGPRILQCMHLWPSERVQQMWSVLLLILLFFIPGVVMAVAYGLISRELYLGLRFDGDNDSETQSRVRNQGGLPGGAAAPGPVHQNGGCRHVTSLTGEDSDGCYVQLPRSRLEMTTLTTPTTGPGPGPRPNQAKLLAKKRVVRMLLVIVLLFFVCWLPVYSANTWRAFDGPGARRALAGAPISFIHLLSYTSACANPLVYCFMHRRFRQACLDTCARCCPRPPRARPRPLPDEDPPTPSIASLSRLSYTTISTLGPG
Procedure: The biological activities of compounds of this invention were evaluated employing an initial screening test which rapidly and accurately measured the binding of the tested compound to known CCK receptor cites. […] (See Hays et al., Neuropeptides, 1: 53-62 (1980); and Sauter et al., Science, 208: 1155-1156 (1980).
In the screening test, the cerebral cortices from male CFLP mice weighing between 30-40 g were dissected on ice, weighed and homogenized in 10 volumes of 50 mM Tris-HCl buffer (pH 7.4 at 0°-4° C.). The resulting suspension was centrifuged, the supernate was discarded, and the pellet was washed by resuspension in Tris-HCl buffer followed by recentrifugation.
The final pellet was resuspended in 10 volumes of 10 mM Hepes buffer (pH 7.2 at 23° C.) containing 130 mM NaCl, 4.7 mM KCl, 1 mM EDTA, 5 mg/ml bovine albumin, and bacitracin (0.25 mg/ml). […]
Following incubation, radioactivity bound to membranes was separated from that free in solution by rapid filtration through Whatman GF/B filters and washed three times with 4-ml portions of ice-cold Tris-HCl buffer. Filters from samples incubated with tritiated pentagastrin were placed in polyethylene vials with 8 ml of scintillation cocktail, and the radioactivity was estimated by scintillation spectrometry (efficiency 47-52%). […]
Saturation curves for specific tritiated pentagastrin binding to mouse cortical membranes were analyzed by statisitcal methods to provide estimates for the maximum number of binding sites (Bmax) and the equilibrium dissociation constant (Kd).
In the displacement experiements, inhibition curves were analyzed by logit-log plots to provide estimates of the IC50 and nH (apparent Hill coefficient) values. […]
The inhibition constant, Ki, of the test compound was then calculated according to the Cheng-Prusoff equation: [formula] where [L] is the molar concentration of radiolabel and Kd is the equilibrium dissociation constant.

Molecule	Percent Repression of Food Intake After 0.5 Hours ([1]; I.P. 300 mg/kg)	Percent Repression of Food Intake After 1.0 Hours ([1]; I.P. 300 mg/kg)	Percent Repression of Food Intake After 3.0 Hours ([1]; I.P. 300 mg/kg)	Percent Repression of Food Intake After 6.0 Hours ([1]; I.P. 300 mg/kg)	Ki [2]	Percent Repression of Food Intake After 0.5 Hours ([1]; I.P. 100 mg/kg)	Percent Repression of Food Intake After 1.0 Hours ([1]; I.P. 100 mg/kg)	Percent Repression of Food Intake After 3.0 Hours ([1]; I.P. 100 mg/kg)	Percent Repression of Food Intake After 6.0 Hours ([1]; I.P. 100 mg/kg)	also measured
CC(Cc1c[nH]c2ccccc12)(NC(=O)OC(C)(C)C(Cl)(Cl)Cl)C(=O)NCCc1ccccn1 (racemic) [Example 19, (±)-[1-(1H-Indol-3-ylmethyl)-1-methyl-2-oxo-2-[[2-(2-pyridinyl)ethyl]amino]ethyl]carbamic acid, 2,2,2-trichloro-1,1-dimethylethyl ester]	35%	49%	60%	55%						Percent Repression of Food Intake After 0.5 Hours ([1]; P.O. 300 mg/kg): 78%; Percent Repression of Food Intake After 1.0 Hours ([1]; P.O. 300 mg/kg): 68%; Percent Repression of Food Intake After 3.0 Hours ([1]; P.O. 300 mg/kg): 52%; Percent Repression of Food Intake After 6.0 Hours ([1]; P.O. 300 mg/kg): 52%
CC(C)(C)OC(=O)N[C@@](C)(Cc1c[nH]c2ccccc12)C(=O)N[C@@H](Cc1ccccc1)C(N)=O (single isomer, unassigned) [Example 2, N-[(1,1-Dimethylethoxy)carbonyl]-α-methyltryptophyl-L-phenylalaninamide]					6 µM	66%	54%	1%	0%	Percent Repression of Food Intake After 0.5 Hours ([1]; I.P. 4 mg/kg): 24%; Percent Repression of Food Intake After 1.0 Hours ([1]; I.P. 4 mg/kg): 13%; Percent Repression of Food Intake After 3.0 Hours ([1]; I.P. 4 mg/kg): 19%; Percent Repression of Food Intake After 6.0 Hours ([1]; I.P. 4 mg/kg): 14%
CCC(C)(C)OC(=O)NC(C)(Cc1c[nH]c2ccccc12)C(=O)NCCc1ccccc1 (stereo not shown) [Example 6, [1-(1H-Indol-3-ylmethyl)-1-methyl-2-oxo-2-[(2-phenylethyl)amino]ethyl]-carbamic acid, 1,1-dimethylpropyl ester]					6.5 µM	8%	22%	36%	13%	
CCC(C)(C)OC(=O)NC(C)(Cc1c[nH]c2ccccc12)C(=O)NC(CO)Cc1ccccc1 (stereo not shown) [Example 7, [2-[[1-(Hydroxymethyl)-2-phenylethyl]-amino]-1-(1H-indol-3-ylmethyl)-1-methyl-2-oxoethyl]-carbamic acid, 1,1-dimethylpropyl ester]	64%	45%	23%	11%	6.8 µM					
CCK26-33: prior art octapeptide, carboxyl-terminus fragment of cholecystokinin [reference compound]										Percent Repression of Food Intake After 0.5 Hours ([1]; I.P. 5 mg/kg): 50%; Percent Repression of Food Intake After 1.0 Hours ([1]; I.P. 5 mg/kg): 40%; Percent Repression of Food Intake After 3.0 Hours ([1]; I.P. 5 mg/kg): 3%; Percent Repression of Food Intake After 6.0 Hours ([1]; I.P. 5 mg/kg): 12%
